The results in this text go back to patent US20040209897A1 (Pharmacia Corporation, priority 2002, published 2004).

Where a name gives a salt, the structure may show the parent alone.

For the first assay, the target named is Recombinant MAPKAPK2 (MK-2) (Homo sapiens, UniProt P49137). Briefly: Determination of MK-2 IC50 (HSP-peptide phosphorylation, anion exchange resin capture assay). The class given is biochemical.
Sequence of Recombinant MAPKAPK2 (MK-2) (P49137 whole entry, species assumed): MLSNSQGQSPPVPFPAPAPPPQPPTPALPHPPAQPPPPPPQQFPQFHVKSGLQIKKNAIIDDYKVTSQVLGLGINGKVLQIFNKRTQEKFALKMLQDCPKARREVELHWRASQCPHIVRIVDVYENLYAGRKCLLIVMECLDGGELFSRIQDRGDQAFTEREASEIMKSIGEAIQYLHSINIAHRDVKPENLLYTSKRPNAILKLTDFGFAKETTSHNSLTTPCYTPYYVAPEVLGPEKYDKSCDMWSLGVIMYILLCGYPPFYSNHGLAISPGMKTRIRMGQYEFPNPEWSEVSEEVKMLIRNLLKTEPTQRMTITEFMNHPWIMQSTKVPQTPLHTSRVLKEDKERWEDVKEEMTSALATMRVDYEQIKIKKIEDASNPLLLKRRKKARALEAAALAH
Details: not given
On to `C=CC(=O)Nc1cccc(-c2cc(-c3cc4c([nH]3)CCNC4=O)ccn2)c1` [N-[3-[4-(4-oxo-4,5,6,7-tetrahydro-1H-pyrrolo[3,2-c]pyridin-2-yl)pyridin-2-yl]phenyl}acrylamide], for which the “kind of MK-2 inhibition (irreversible)” value is reported as “irreversible inhibitor”.

Still in this assay, the particulars now being: MAPKAP2 Avg. IC50.
For `O=C1NCCc2[nH]c(-c3ccnc(/C=C(/F)c4ccccc4)c3)cc21` [Example 497, trifluoroacetate], the IC50 (commonly the concentration that gives 50% inhibition) was 136 nM.

Take `CC1CNC(=O)c2cc(-c3ccnc(-c4ccccc4F)c3)[nH]c21` (centres unmarked) [Example 505]: the half-maximal inhibitory concentration (IC50) was 145 nM.

As for `O=C1NCCc2[nH]c(-c3ccnc(-c4ccc(OCC(O)CN5CCC[C@@H]5CN5CCCC5)cc4)c3)cc21` (stereo partly drawn) [Example 508, 2-[2-(4-{2-hydroxy-3-[(2R)-2-(pyrrolidin-1-ylmethyl)pyrrolidin-1-yl]propoxy}phenyl)pyridin-4-yl]-1,5,6,7-tetrahydro-4H-pyrrolo[3,2-c]pyridin-4-one trifluoroacetate], the IC50 stood at 149 nM.

Take `O=C1NCCc2[nH]c(-c3cc(-c4ccc(Oc5ccccc5)cc4)ncc3F)cc21` [Example 509, 2-[5-fluoro-2-(4-phenoxyphenyl)pyridin-4-yl]-1,5,6,7-tetrahydro-4H-pyrrolo[3,2-c]pyridin-4-one trifluoroacetate]: the IC50 was 149 nM.

As to `O=C1NCCc2[nH]c(-c3ccnc(/C=C/c4ccc(C(F)(F)F)cc4F)c3)cc21` [Example 510, 2-(2-{(E)-2-[2-fluoro-4-(trifluoromethyl)phenyl]vinyl}pyridin-4-yl)-1,5,6,7-tetrahydro-4H-pyrrolo[3,2-c]pyridin-4-one trifluoroacetate], the 50% inhibitory concentration (IC50) came out at 150 nM.

Regarding `CC(C)CCN(CCCc1ccc(-c2cc(-c3cc4c([nH]3)CCNC4=O)ccn2)cn1)CCC(C)C` [Example 511, 2-(6′-{3-(bis(3-methylbutyl)amino]propyl}-2,3′-bipyridin-4-yl)-1,5,6,7-tetrahydro-4H-pyrrolo[3,2-c]pyridin-4-one trifluoroacetate], the concentration for half-maximal inhibition (IC50) is 151 nM.

As to `O=C1NCCc2[nH]c(-c3ccnc(/C=C/c4ccccc4N4CCOCC4)c3)cc21` [Example 529, 2-{2-[(E)-2-(2-morpholin-4-ylphenyl)vinyl]pyridin-4-yl}-1,5,6,7-tetrahydro-4H-pyrrolo[3,2-c]pyridin-4-one trifluoroacetate], the IC50 is 171 nM.

In the case of `NCc1cccc(-c2cc(-c3cc4c([nH]3)CCNC4=O)ccn2)c1` [Example 551, 2-{2-[3-(aminomethyl)phenyl]pyridin-4-yl}-1,5,6,7-tetrahydro-4H-pyrrolo[3,2-c]pyridin-4-one trifluoroacetate], the IC50 was found to be 207 nM.

In the case of `O=C1NCCc2[nH]c(-c3ccnc(/C=C/c4c(F)c(F)c(F)c(F)c4F)c3)cc21` [Example 563, trifluoroacetate], the 50% inhibitory concentration (IC50) was 245 nM.

As for `Cc1cccc(/C=C/c2cc(-c3cc4c([nH]3)CCNC4=O)ccn2)c1C` [Example 577, trifluoroacetate], the half-maximal inhibitory concentration (IC50) came out at 279 nM.

For `O=C1NCCc2[nH]c(-c3ccnc(/C=C/c4cccc(Oc5ccccc5)c4)c3)cc21` [Example 581, trifluoroacetate], the IC50 was 295 nM.

Take `C/C(=C\c1cc(-c2cc3c([nH]2)CCNC3=O)ccn1)c1ccccc1` [Example 582, trifluoroacetate]: the 50% inhibitory concentration (IC50) was found to be 297 nM.

On to `O=C1NCCc2[nH]c(-c3ccnc(-c4ccc([N+](=O)[O-])cc4)c3)cc21` [Example 587], for which the IC50 worked out at 316 nM.

As to `CC(C)c1ccccc1/C=C/c1cc(-c2cc3c([nH]2)CCNC3=O)ccn1` [Example 599, trifluoroacetate], the half-maximal inhibitory concentration (IC50) was determined as 342 nM.

For `O=C1NCCc2[nH]c(-c3ccnc(/C=C/c4csc(-c5ccccc5)n4)c3)cc21` [Example 602, trifluoroacetate], the IC50 was 348 nM.

Consider `Cc1cc(C)c(/C=C\c2cc(-c3cc4c([nH]3)CCNC4=O)ccn2)cc1C` [Example 604, trifluoroacetate], for which the IC50 is 354 nM.

`O=C1NCCc2[nH]c(-c3ccnc(/C=C\C=C\c4ccccc4)c3)cc21` [Example 610]: the IC50 came out at 365 nM.

On to `O=C1NCCc2[nH]c(-c3ccnc(/C=C\c4cc5ccccc5s4)c3)cc21` [Example 623, trifluoroacetate], for which the IC50 turned out to be 442 nM.

For `O=C1NCCc2[nH]c(-c3ccnc(-c4cncc5ccccc45)c3)cc21` [Example 627, trifluoroacetate], the IC50 was found to be 447 nM.

Consider `O=C1NC(C2CC2)Cc2[nH]c(-c3ccnc(-c4cccc(NC(=O)C5CCCC5)c4)c3)cc21` (centres unmarked) [Example 634, trifluoroacetate], for which the IC50 turned out to be 509 nM.

For the compound `O=C1NCCc2[nH]c(-c3ccnc(/C=C/c4ccc(-c5ccccc5)cc4)c3)cc21` [Example 639, trifluoroacetate], the half-inhibitory concentration (IC50) stood at 562 nM.

Take `CCCCc1cccc(-c2cc(-c3cc4c([nH]3)CCNC4=O)ccn2)c1` [Example 659, trifluoroacetate]: the half-inhibitory concentration (IC50) was found to be 721 nM.

Take `O=C1NCCc2[nH]c(-c3ccnc(-c4cccc(CN5CCCC5)c4)c3)cc21` [Example 660, trifluoroacetate]: the IC50 worked out at 750 nM.

In the case of `O=C1NCCc2[nH]c(-c3ccnc(/C=C/c4ccccc4N4CCNCC4)c3)cc21` [Example 667, trifluoroacetate], the concentration for half-maximal inhibition (IC50) stood at 791 nM.

In the case of `O=C1NCCc2[nH]c(-c3ccnc(/C=C/c4ccccc4-c4ccccc4)c3)cc21` [Example 670, trifluoroacetate], the IC50 is 816 nM.

Regarding `O=C1NCCc2[nH]c(-c3ccnc(/C=C/c4ccccc4N4CCCCC4)c3)cc21` [Example 671, trifluoroacetate], the half-maximal inhibitory concentration (IC50) is 820 nM.

For the compound `O=C1NCCc2[nH]c(-c3ccc(O)c(-c4cnc5ccccc5c4)c3)cc21` [Example 676], the concentration for half-maximal inhibition (IC50) worked out at 937 nM.

Regarding `O=C1NCCc2[nH]c(-c3ccnc(/C=C/c4ccc(-c5ccccc5)s4)c3)cc21` [Example 683, trifluoroacetate], the 50% inhibitory concentration (IC50) came to 1020 nM.

For `O=C1NCCc2[nH]c(-c3ccnc(/C=C\c4ccc(F)c(F)c4)c3)cc21` [Example 687, trifluoroacetate], the half-maximal inhibitory concentration (IC50) was found to be 1080 nM.

With `O=C1NCCc2[nH]c(-c3ccnc(/C=C/c4ccccc4C4CCCCC4)c3)cc21` [Example 694, trifluoroacetate], the half-inhibitory concentration (IC50) is 1150 nM.

On to `O=C1NCCc2[nH]c(-c3ccnc(/C=C/Cc4ccccc4)c3)cc21` [Example 713, trifluoroacetate], for which the IC50 stood at 1760 nM.

In the case of `O=C1NCCc2[nH]c(-c3ccnc(/C=C/c4c(Cl)cccc4N4CCOCC4)c3)cc21` [Example 715, trifluoroacetate], the IC50 amounted to 1800 nM.

`COCCN(C)c1ccccc1/C=C/c1cc(-c2cc3c([nH]2)CCNC3=O)ccn1` [Example 716, trifluoroacetate]: the IC50 came to 1810 nM.

`C=CC(=O)N(CCNC(=O)OC(C)(C)C)c1ccc(-c2cc(-c3cc4c([nH]3)CCNC4=O)ccn2)cn1` [Example 732, trifluoroacetate]: the IC50 is 2330 nM.

In the case of `O=C1NCCc2[nH]c(-c3ccnc(/C=C\c4cccnc4)c3)cc21` [Example 747, trifluoroacetate], the IC50 turned out to be 3330 nM.

For `O=C1NCCc2[nH]c(-c3ccnc(/C=C\Cc4ccccc4)c3)cc21` [Example 749, trifluoroacetate], the half-maximal inhibitory concentration (IC50) is 3750 nM.

Turning to `Cn1c(-c2ccnc(-c3cnc4ccccc4c3)c2)cc2c1CCNC2=O` [Example 750, 1-methyl-2-(2-quinolin-3-ylpyridin-4-yl)-1,5,6,7-tetrahydro-4H-pyrrolo[3,2-c]pyridin-4-one], the half-maximal inhibitory concentration (IC50) turned out to be 4130 nM.

Consider `CN(N)c1cc(-c2cc3c([nH]2)CCNC3=O)ccn1` [Example 756, 2-[2-(1-methylhydrazino)pyridin-4-yl]-1,5,6,7-tetrahydro-4H-pyrrolo[3,2-c]pyridin-4-one], for which the IC50 was 4910 nM.

`CCN(CC)c1ccccc1/C=C/c1cc(-c2cc3c([nH]2)CCNC3=O)ccn1` [Example 762, trifluoroacetate]: the IC50 came out at 5770 nM.

`C[C@@H]1CN(c2ccccc2/C=C/c2cc(-c3cc4c([nH]3)CCNC4=O)ccn2)C[C@H](C)O1` [Example 766, 2-[2-((E)-2-{2-[(2R,6S)-2,6-dimethylmorpholin-4-yl]phenyl}vinyl)pyridin-4-yl]-1,5,6,7-tetrahydro-4H-pyrrolo[3,2-c]pyridin-4-one trifluoroacetate]: the half-inhibitory concentration (IC50) was 7540 nM.

For `O=C1NC(c2ccccc2)Cc2[nH]c(-c3ccnc(-c4cccc(F)c4)c3)cc21` (centres unmarked) [Example 767, 2-[2-(3-fluorophenyl)pyridin-4-yl]-6-phenyl-1,5,6,7-tetrahydro-4H-pyrrolo[3,2-c]pyridin-4-one trifluoroacetate], the IC50 stood at 7750 nM.

`O=C1NCC(c2ccccc2)c2[nH]c(-c3ccnc(-c4cnc5ccccc5c4)c3)cc21` (centres unmarked) [Example 768, 7-phenyl-2-(2-quinolin-3-ylpyridin-4-yl)-1,5,6,7-tetrahydro-4H-pyrrolo[3,2-c]pyridin-4-one trifluoroacetate]: the IC50 stood at 7980 nM.

Take `N/N=C(\c1ccccc1)c1cc(-c2cc3c([nH]2)CCNC3=O)ccn1` [Example 786, 2-{2-[(E)-hydrazono(phenyl)methyl]pyridin-4-yl}-1,5,6,7-tetrahydro-4H-pyrrolo[3,2-c]pyridin-4-one trifluoroacetate]: the IC50 is 14300 nM.

As for `O=C(NCc1ccccc1)c1cc(-c2cc3c([nH]2)CCNC3=O)ccn1` [Example 787, trifluoroacetate], the 50% inhibitory concentration (IC50) came out at 14400 nM.

Still in this assay, the particulars now being: MAPKAP2 Avg. IC50, MK-2 inhibiting activity, Table I.
Take `O=C1NCCc2[nH]c(-c3cc(F)nc(-c4ccccc4F)c3)cc21` [Example 802, 2-[2-fluoro-6-(2-fluorophenyl)pyridin-4-yl]-1,5,6,7-tetrahydro-4H-pyrrolo[3,2-c]pyridin-4-one trifluoroacetate]: the half-inhibitory concentration (IC50) is 20000 nM.

Take `NCCc1[nH]c(-c2ccnc(NN)c2)cc1C(=O)NN` [Example 817, 2-(2-aminoethyl)-5-(2-hydrazinopyridin-4-yl)-1H-pyrrole-3-carbohydrazide]: the IC50 amounted to 20000 nM.
